# How the values were obtained:
# [1] = target: T1, oxytocin receptor recombinant protein (Homo sapiens, UniProt P30559); assay: Binding of cosmoperine to the oxytocin receptor by surface plasmon resonance; details: SPR chip with oxytocin receptor bound to its surface; cosmoperine 0 to 400 μM; reaction for 90 seconds
# T1 construct: purchased Mybiosource, MA
# T1 sequence (P30559 1-389): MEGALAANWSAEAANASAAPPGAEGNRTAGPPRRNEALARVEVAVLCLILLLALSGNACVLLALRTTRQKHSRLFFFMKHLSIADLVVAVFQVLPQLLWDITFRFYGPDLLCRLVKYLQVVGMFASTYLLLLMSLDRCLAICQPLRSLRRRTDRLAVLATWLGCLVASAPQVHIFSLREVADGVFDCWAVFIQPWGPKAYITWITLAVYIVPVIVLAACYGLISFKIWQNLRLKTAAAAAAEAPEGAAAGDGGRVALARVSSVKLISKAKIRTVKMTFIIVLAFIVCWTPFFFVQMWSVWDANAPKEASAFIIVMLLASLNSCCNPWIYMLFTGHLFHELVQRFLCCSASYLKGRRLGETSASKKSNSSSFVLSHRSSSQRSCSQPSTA
# Protocol: In order to confirm the binding of cosmoperine to the oxytocin receptor, cosmoperine (Sabina Corp, NJ) at a concentration of 0 to 400 μM was applied to a SPR chip (Biorad, MA) with the oxytocin receptor (oxytocin receptor recombinant protein, Mybiosource, MA) bound to its surface, followed by reaction for 90 seconds. Then, the binding pattern of cosmoperine to the oxytocin receptor was measured using a surface plasmon resonance device (Surface plasmon resonance; Biorad, MA).
# PC12 (neurocytoma cell) = assay: Inhibitory effect on glucocorticoid-induced apoptosis (CCK-8 cell survival); assay type: cell-based; details: PC12 cells, 400 μM corticosterone 24 hours, 50 μM cosmoperine pretreated 2 hours before, relative survival rate
# Protocol: In order to confirm the anti-stress effect of cosmoperine, a test was performed for glucocorticoid-induced apoptosis.
# PC12 (neurocytoma cell; KCLB21721, Korea Cell Line Bank) was seeded into a 96-well plate at 2×10^4 cells/well and cultured at 5% CO2 and 37° C. The culture medium was RPMI 1640 medium (Gibco BRL, Grand Island, N.Y., USA)) supplemented with 10% serum (heat-inactivated fetal bovine serum (FBS, Gibco)), 100 U/ml of penicillin (Gibco) and 100 μg/ml of streptomycin (Gibco). The cells were treated with 400 μM corticosterone (Sigma, MA), which is a stress hormone, and cultured at 5% CO2 and 37° C. for 24 hours to induce stress. 400 μM corticosterone and 50 μM fluoxetine (fluoxetine hydrochloride, Sigma), which is an antidepressant, were used as the positive control group. For the cosmoperine-treated group, 400 μM corticosterone and 50 μM cosmoperine (Sabina Corp, NJ) were used. Fluoxetine and cosmoperine each were pretreated 2 hours before the application of corticosterone. 10 μl of CCK-8 solution (Dojindo Laboratories) was added to each of the wells, followed by culture for 2 hours. Then, measurements were made at […].
smiles,measurement,setting,value
"O=C(CCCCc1ccc2c(c1)OCO2)N1CCCCC1 [cosmoperine, tetrahydropiperine]",binding to the oxytocin receptor,[1],binds to the oxytocin receptor in a concentration-dependent manner
same,inhibiting the apoptosis induced by corticosterone,PC12 (neurocytoma cell),excellent in inhibiting the apoptosis induced by corticosterone

# Reference: patent US20210275422A1, “ANTI-STRESS COMPOSITION CONTAINING COSMOPERINE” (AMOREPACIFIC CORPORATION, priority 2016, published 2021)
